Data from patent US7037917B2, “HIV replication inhibiting pyrimidines” (Janssen Pharmaceutica, N.V., priority 1998, dated 2006).
Counter-ions that a name gives are not always drawn.

tested on: HIV-1; experiment: microbe, parasite or virus in culture; conditions: Human immunodeficiency virus 1, MT4
Experimental: A rapid, sensitive and automated assay procedure was used for the in vitro evaluation of anti-HIV agents. […] Inhibition of the HIV-induced cytopathic effect was used as the end point. […] The percent protection achieved by the compound in HIV-infected cells was calculated by the following formula:
[formula] whereby (ODT)HIV is the optical density measured with a given concentration of the test compound in HIV-infected cells; (ODC)HIV is the optical density measured for the control untreated HIV-infected cells; (ODC)MOCK is the optical density measured for the control untreated mock-infected cells; all optical density values were determined at 540 nm. […] The ratio of CC50 to IC50 was defined as the selectivity index (SI).

Work on `COC(=O)COCC(=O)N(c1ccc(C#N)cc1)c1ncc(Br)c(Oc2c(C)cc(C#N)cc2C)n1` [Compound 61] yielded an IC50 of 0.002 µM.

tested on: mock-infected MT-4 cells; experiment: cytotoxicity in mock-infected MT-4 cells (MTT); format: cell-based; conditions: not given

`Cc1cc(C)c(Sc2nc(Nc3ccc(C#N)cc3)ncc2Cl)c(C)c1` [Compound 7] and `Cc1cc(Br)cc(C)c1Oc1nc(Nc2ccc(C#N)cc2)ncc1Cl` [Compound 8] cannot be ordered by CC50: greater than 100 µM for the first, greater than 100 µM for the second.

Going from `Cc1cc(Br)cc(C)c1Nc1nc(Nc2ccc(C#N)cc2)ncc1Cl` [Compound 9] to `Cc1cc(C#N)cc(C)c1Nc1nc(Nc2ccc(C#N)cc2)ncc1Cl` [Compound 13], the CC50 falls from 1.2 µM to 0.4 µM (3-fold).

First: N#Cc1ccc(Nc2ncc(Cl)c(Nc3c(F)cc(Br)cc3Br)n2)cc1 [Compound 11]
Second: Cc1cc(C(C)(C)C)cc(C)c1Nc1nc(Nc2ccc(C#N)cc2)ncc1Cl [Compound 12]
The CC50 of the first is 120-fold lower: 0.4 µM for the first, 48.5 µM for the second.

`Cc1cc(Br)cc(Cl)c1Oc1nc(Nc2ccc(C#N)cc2)ncc1Cl` [Compound 15] and `Cc1cc(Cl)cc(C)c1Oc1nc(Nc2ccc(C#N)cc2)ncc1Cl` [Compound 16] cannot be ordered by CC50: greater than 100 µM for the first, greater than 100 µM for the second.

`Cc1cc(C#N)cc(C)c1Oc1nc(Nc2ccc(C#N)cc2)ncc1Cl` [Compound 18] and `Cc1cc(C#N)cc(C)c1Oc1nc(N(COC(=O)C(C)(C)C)c2ccc(C#N)cc2)ncc1Br` [Compound 60] cannot be ordered by CC50: greater than 10 µM for the first, 74.5 µM for the second.

tested on: not listed separately; experiment: cytotoxicity in mock-infected MT-4 cells (MTT); format: cell-based; conditions: human, mock-infected MT-4 cells; concentration reducing absorbance of mock-infected MT-4 control by 50%; MTT

First: Cc1cc(C)c(Nc2ncc(Cl)c(Nc3ccc(C#N)cc3)n2)c(C)c1 [Compound 1, 4-[[5-chloro-2-[(2,4,6-trimethylphenyl)amino]-4-pyrimidinyl]amino]benzonitrile]
Second: Cc1cc(C)c(Nc2nc(Nc3ccc(C#N)cc3)ncc2Cl)c(C)c1 [Compound 5, 4-[[5-chloro-4-[(2,4,6-trimethylphenyl)amino]-2-pyrimidinyl]amino]benzonitrile]
The CC50 of the first is 27-fold higher: 10.9 µM for the first, 0.4 µM for the second.

Going from `Cc1cc(C)c(Nc2ncc(Br)c(Nc3ccc(C#N)cc3)n2)c(C)c1` [Compound 2, 4-[[5-bromo-2-[(2,4,6-trimethylphenyl)amino]-4-pyrimidinyl]amino]benzonitrile] to `Cc1cc(C)c(Nc2nc(Nc3ccc(C#N)cc3)ncc2Br)c(C)c1` [Compound 3, 4-[[5-bromo-4-[(2,4,6-trimethylphenyl)amino]-2-pyrimidinyl]amino]benzonitrile], the CC50 falls from 82.6 µM to 4.4 µM (19-fold).

Compared with `Cc1cc(C)c(Nc2nc(Nc3ccc(C#N)cc3)nc(N)c2Cl)c(C)c1.O=C(O)C(F)(F)F` [Compound 4, 4-[[4-amino-5-chloro-6-[(2,4,6-trimethylphenyl)amino]-2-pyrimidinyl]amino]benzonitrile trifluoroacetate (1:1)], `Cc1cc(C)c(Oc2nc(Nc3ccc(C#N)cc3)ncc2Cl)c(C)c1` [Compound 6, 4-[[5-chloro-4-(2,4,6-trimethylphenoxy)-2-pyrimidinyl]amino]benzonitrile] is higher in CC50: 10 µM for the first, greater than 100 µM for the second.

Compared with `Cc1cc(Br)c(Nc2nc(Nc3ccc(C#N)cc3)ncc2Cl)c(Br)c1` [Compound 10, 4-[[5-chloro-4-[(2,6-dibromo-4-methylphenyl)amino]-2-pyrimidinyl]amino]benzonitrile], `Cc1cc(C#N)cc(C)c1Oc1nc(Nc2ccc(C#N)cc2)ncc1Br` [Compound 17, 4-[[5-bromo-4-(4-cyano-2,6-dimethylphenoxy)-2-pyrimidinyl]amino]benzonitrile] is higher in CC50: 0.4 µM for the first, greater than 10 µM for the second.

`Cc1cc(C#N)cc(C)c1Oc1nc(Nc2ccc(C#N)cc2)nc(N)c1Br` [Compound 46, 4-[[4-amino-5-bromo-6-(4-cyano-2,6-dimethylphenyloxy)-2-pyrimidinyl]amino]benzonitrile] and `COC(=O)COCC(=O)N(c1ccc(C#N)cc1)c1ncc(Br)c(Oc2c(C)cc(C#N)cc2C)n1` [Compound 61] cannot be ordered by CC50: greater than 200 µM for the first, greater than 100 µM for the second.

tested on: not given; experiment: not given; conditions: not given

First: Cc1cc(C#N)cc(C)c1Oc1nc(Nc2ccc(C#N)cc2)nc(NCCN2CCCC2)c1Br.Cl
Second: CONc1nc(Nc2ccc(C#N)cc2)nc(Oc2c(C)cc(C#N)cc2C)c1Br [Compound 48, 4-[[5-bromo-4-(4-cyano-2,6-dimethylphenoxy)-6-(methoxyamino)-2-pyrimidinyl]amino]benzonitrile]
The melting point of the first is higher: 208 to 210 °C for the first, 185 to 186 °C for the second.

First: Cc1cc(C)c(Nc2nc(Nc3ccc(C#N)cc3)ncc2N)c(C)c1 (as salt: trifluoroacetate) [Compound 51, 4-[[5-amino-4-[(2,4,6-trimethylphenyl)amino]-2-pyrimidinyl]amino]benzonitrile]
Second: C=Cc1cnc(Nc2ccc(C#N)cc2)nc1Nc1c(C)cc(C)cc1C (as salt: trifluoroacetate) [Compound 54, 4-[[5-ethenyl-4-[(2,4,6-trimethylphenyl)amino]-2-pyrimidinyl]amino]benzonitrile]
The melting point of the first is lower: 224 to 225 °C for the first, 237 to 242 °C for the second.

Compared with `Cc1cc(C)c(Nc2nc(Nc3ccc(C#N)cc3)nc(Cl)c2Br)c(C)c1` [Compound 41, 4-[[5-bromo-4-chloro-6-[(2,4,6-trimethylphenyl)amino]-2-pyrimidinyl]amino]benzonitrile], `Cc1cc(C#N)cc(C)c1Nc1nc(Nc2ccc(C#N)cc2)nc(Cl)c1Br` [Compound 42, 4-[[5-bromo-4-chloro-6-[(4-cyano-2,6-dimethylphenyl)amino]-2-pyrimidinyl]amino]benzonitrile] is higher in melting point: 220 to 221 °C for the first, 259 to 260 °C for the second.

First: Cc1cc(C#N)cc(C)c1Oc1nc(Nc2ccc(C#N)cc2)nc(C)c1Br [Compound 44, 4-[[5-bromo-4-(4-cyano-2,6-dimethylphenoxy)-6-methyl-2-pyrimidinyl]amino]benzonitrile]
Second: Cc1cc(C#N)cc(C)c1Nc1nc(Nc2ccc(C#N)cc2)ncc1Br [Compound 45, 4-[[5-bromo-6-[(4-cyano-2,6-dimethylphenyl)amino]-2-pyrimidinyl]amino]benzonitrile]
The melting point of the first is lower: 260 to 262 °C for the first, 277 to 280 °C for the second.

First: C#Cc1cnc(Nc2ccc(C#N)cc2)nc1Nc1c(C)cc(C)cc1C [Compound 52, 4-[[5-ethynyl-4-[(2,4,6-trimethylphenyl)amino]-2-pyrimidinyl]amino]benzonitrile]
Second: Cc1cc(C)c(Nc2nc(Nc3ccc(C#N)cc3)ncc2-c2ccccc2)c(C)c1 [Compound 53, 4-[[5-phenyl-4-[(2,4,6-trimethylphenyl)amino]-2-pyrimidinyl]amino]benzonitrile]
The melting point of the first is lower: 165 to 175 °C for the first, 209 to 214 °C for the second.

With `Cc1cc(C#N)cc(C)c1Oc1nc(Nc2ccc(C#N)cc2)ncc1N` [Compound 50, 4-[[5-amino-4-(4-cyano-2,6-dimethylphenoxy)-2-pyrimidinyl]amino]benzonitrile] the melting point was greater than 300 °C.

tested on: HIV-1; experiment: not given; conditions: dose achieving 50% protection of HIV-infected MT-4 cells against cytopathic effect; MTT, OD 540 nm

With `Cc1cc(C#N)cc(C)c1Oc1nc(N(COC(=O)C(C)(C)C)c2ccc(C#N)cc2)ncc1Br` [Compound 60] the IC50 was 0.002 µM.

same assay, conditions: ratio of CC50 to IC50

For `COC(=O)COCC(=O)N(c1ccc(C#N)cc1)c1ncc(Br)c(Oc2c(C)cc(C#N)cc2C)n1` [Compound 61], the “SI (selectivity index)” value was greater than 52631.
